Data taken from patent US20230097157A1, “Bicyclic Pyridin-2-one and pyrimidin-4-one Derivatives Useful As a Factor XIa Inhibitors” (Janssen Pharmaceutica NV, priority 2021, published 2023).
Where two headings read alike, the source gives them in different places.

Key:
human plasma kallikrein = human plasma kallikrein (Homo sapiens, UniProt P03952); assay: Kallikrein inhibition assay (FLINT) utilizing a quenched AMC peptide substrate Z-Gly-Pro-Arg-AMC; type: biochemical; details: kinetic (KIN) reads, read-out: Kallikrein KIN Inh IC50
Procedure, shortened: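 Human plasma kallikrein (2 nM final) pre-incubated 30 min with compound (11-point 3-fold series, top 1 μM, 2% DMSO), then 50 μM Z-Gly-Pro-Arg-AMC added. Buffer 50 mM Tris pH 7.5, 100 mM NaCl, 5 mM CaCl2, BSA, CHAPS. AMC fluorescence (340/440 nm) read kinetically over 30 min at room temperature, IC50 by 4-parameter logistic fit.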

Factor XIa = Factor XIa (Homo sapiens, UniProt P03951); assay: Factor XIa inhibition assay (FLINT) utilizing a fluorophore-quencher pair peptide substrate 5Fam-[…]-K5Tamra; type: biochemical; details: kinetic (KIN) reads, read-out: FXIa KIN Inh IC50
Procedure, shortened: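 FXIa was preincubated with compound for 30 min at room temperature in Tris pH 7.5 buffer containing CaCl2, BSA and CHAPS, then reacted with 15 μM quenched 5Fam/Tamra peptide substrate. Fluorescence (485/520 nm) was read kinetically every 5 min for 30 min.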

Sequence of human plasma kallikrein (P03952 391-638 limits assumed): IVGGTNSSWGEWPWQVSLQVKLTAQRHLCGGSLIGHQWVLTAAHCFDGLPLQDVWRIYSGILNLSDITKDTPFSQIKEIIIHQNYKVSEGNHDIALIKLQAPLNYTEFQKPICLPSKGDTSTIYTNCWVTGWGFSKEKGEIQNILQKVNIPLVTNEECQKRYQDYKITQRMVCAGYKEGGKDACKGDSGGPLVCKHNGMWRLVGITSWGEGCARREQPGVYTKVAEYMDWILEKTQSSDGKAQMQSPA
Sequence of human plasma kallikrein (P03952 20-390 partner limits assumed): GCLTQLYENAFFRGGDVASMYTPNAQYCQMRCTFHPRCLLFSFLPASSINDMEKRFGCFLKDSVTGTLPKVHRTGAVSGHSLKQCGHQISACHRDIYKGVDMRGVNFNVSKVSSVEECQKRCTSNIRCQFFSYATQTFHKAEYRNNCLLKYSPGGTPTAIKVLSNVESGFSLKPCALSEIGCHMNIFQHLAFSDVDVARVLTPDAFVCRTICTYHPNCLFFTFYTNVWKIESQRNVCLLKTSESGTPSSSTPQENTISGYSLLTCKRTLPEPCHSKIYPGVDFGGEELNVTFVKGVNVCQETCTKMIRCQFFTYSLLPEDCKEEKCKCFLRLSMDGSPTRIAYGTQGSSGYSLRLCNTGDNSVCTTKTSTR
Sequence of Factor XIa (P03951 388-625 limits assumed): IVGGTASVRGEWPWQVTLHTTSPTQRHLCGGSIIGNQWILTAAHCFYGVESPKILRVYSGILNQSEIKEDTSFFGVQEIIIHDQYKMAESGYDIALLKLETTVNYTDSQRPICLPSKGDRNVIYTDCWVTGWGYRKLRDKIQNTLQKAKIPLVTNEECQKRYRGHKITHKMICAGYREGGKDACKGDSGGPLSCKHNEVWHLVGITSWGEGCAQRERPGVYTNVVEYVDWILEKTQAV
Sequence of Factor XIa (P03951 19-387 partner limits assumed): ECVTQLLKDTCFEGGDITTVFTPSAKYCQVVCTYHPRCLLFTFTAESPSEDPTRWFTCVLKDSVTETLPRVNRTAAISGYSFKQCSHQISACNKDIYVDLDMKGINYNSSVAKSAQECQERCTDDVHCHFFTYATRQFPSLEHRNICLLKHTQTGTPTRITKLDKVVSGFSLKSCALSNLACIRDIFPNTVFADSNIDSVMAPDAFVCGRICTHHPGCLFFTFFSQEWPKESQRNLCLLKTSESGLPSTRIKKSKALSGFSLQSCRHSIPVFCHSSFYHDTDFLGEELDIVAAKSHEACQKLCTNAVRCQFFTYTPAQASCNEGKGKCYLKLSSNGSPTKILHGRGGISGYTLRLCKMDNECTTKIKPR

Question: For `O=c1cc(-c2c(-n3cnnn3)ccc(Cl)c2F)nc2n1C(c1nc(F)c(-c3ccnc(CO)c3F)[nH]1)CC21CC1` (racemic) [Example 69, 2′-(3-Chloro-2-fluoro-6-(1H-tetrazol-1-yl)phenyl)-6′-(4-fluoro-5-(3-fluoro-2-(hydroxymethyl)pyridin-4-yl)-1H-imidazol-2-yl)-6′,7′-dihydro-4′H-spiro[cyclopropane-1,8′-pyrrolo[1,2-a]pyrimidin]-4′-one], which IC50 (human plasma kallikrein; values in nM) is on record?
Answer: Its IC50 is 118 nM.

Question: What about the IC50 (Factor XIa; values in nM) of the same compound?
Answer: Its IC50 is 19.4 nM.

Question: With `C[C@H]1C[C@@H](c2ncc(-c3cnc(N)c(F)c3)[nH]2)n2c1cc(-c1c(-n3cnnn3)ccc(Cl)c1F)cc2=O` (relative stereo) [Example 61, (1*S,3*S)-3-(5-(6-Amino-5-fluoropyridin-3-yl)-1H-imidazol-2-yl)-7-(3-chloro-2-fluoro-6-(1H-tetrazol-1-yl)phenyl)-1-methyl-2,3-dihydroindolizin-5(1H)-one] as the compound, how does the IC50 (human plasma kallikrein; unit μM) read?
Answer: The IC50 was > 10000 nM.

Question: And the IC50 (Factor XIa; unit μM)?
Answer: Its IC50 is > 10000 nM.

Question: Which results are given for `C[C@@H]1C[C@H](c2ncc(-c3ccn4nccc4c3)[nH]2)n2c1cc(-c1c(-n3cnnn3)ccc(Cl)c1F)cc2=O` (stereo in doubt) [Example 52, (1*R,3*R)-7-(3-Chloro-2-fluoro-6-(1H-tetrazol-1-yl)phenyl)-1-methyl-3-(5-(pyrazolo[1,5-a]pyridin-5-yl)-1H-imidazol-2-yl)-2,3-dihydroindolizin-5(1H)-one]?
Answer: IC50 (human plasma kallikrein; unit μM): > 10000 nM; IC50 (Factor XIa; unit μM): 7900 nM

Question: With `Cc1nc(N)c(F)cc1-c1cnc([C@H]2C[C@@H](C)c3nc(-c4c(-n5cnnn5)ccc(Cl)c4F)cc(=O)n32)[nH]1` (stereo in doubt) [Example 128, (6*R,8*R)-6-(5-(6-Amino-5-fluoro-2-methylpyridin-3-yl)-1H-imidazol-2-yl)-2-(3-chloro-2-fluoro-6-(1H-tetrazol-1-yl)phenyl)-8-methyl-7,8-dihydropyrrolo[1,2-a]pyrimidin-4(6H)-one] as the compound, how does the IC50 (human plasma kallikrein; values in nM) read?
Answer: The IC50 was 747 nM.

Question: And the IC50 (Factor XIa; values in nM)?
Answer: Its IC50 is 283 nM.

Question: How did the IC50 (human plasma kallikrein; unit μM) turn out when `Cc1cc(-c2cnc([C@@H]3C[C@@H](C)c4cc(-c5c(-n6cnnn6)ccc(Cl)c5F)cc(=O)n43)[nH]2)ccn1` (stereo in doubt) [Example 41, (1*R,3*S)-7-(3-Chloro-2-fluoro-6-(1H-tetrazol-1-yl)phenyl)-1-methyl-3-(5-(2-methylpyridin-4-yl)-1H-imidazol-2-yl)-2,3-dihydroindolizin-5(1H)-one] was run?
Answer: Its IC50 is 2200 nM.

Question: What about the IC50 (Factor XIa; values in nM) of the same compound?
Answer: Its IC50 is 346 nM.

Question: With `COC(=O)Nc1ccc(-c2cnc([C@@H]3C[C@@H](C)c4cc(-c5c(-n6cnnn6)ccc(Cl)c5F)cc(=O)n43)[nH]2)cc1` [Example 65, Methyl(4-(2-((1R,3S)-7-(3-chloro-2-fluoro-6-(1H-tetrazol-1-yl)phenyl)-1-methyl-5-oxo-1,2,3,5-tetrahydroindolizin-3-yl)-1H-imidazol-5-yl)phenyl)carbamate] as the compound, how does the IC50 (human plasma kallikrein; values in nM) read?
Answer: The IC50 was 1.3 nM.

Question: What about the IC50 (Factor XIa; values in nM) of the same compound?
Answer: The IC50 was 0.6 nM.

Question: With `CC1C[C@@H](c2nc(-c3cnc(N)cn3)c[nH]2)n2c1nc(-c1c(-n3cc(C(F)(F)F)nn3)ccc(Cl)c1F)cc2=O` (stereo partly drawn) [Example 80, (6S)-6-(4-(5-aminopyrazin-2-yl)-1H-imidazol-2-yl)-2-(3-chloro-2-fluoro-6-(4-(trifluoromethyl)-1H-1,2,3-triazol-1-yl)phenyl)-8-methyl-7,8-dihydropyrrolo[1,2-a]pyrimidin-4(6H)-one] as the compound, how does the IC50 (human plasma kallikrein; values in nM) read?
Answer: The IC50 was ~236 nM.

Question: And the IC50 (Factor XIa; values in nM)?
Answer: The IC50 was 4.4 nM.

Question: How did the IC50 (human plasma kallikrein; values in nM) turn out when `COC(=O)Nc1ccc(-c2cnc([C@H]3C[C@@H](C)c4nc(-c5c(-n6cnnn6)ccc(Cl)c5F)cc(=O)n43)[nH]2)cc1` (stereo in doubt) [Example 127, Methyl (4-(2-((6*R,8*R)-2-(3-Chloro-2-fluoro-6-(1H-tetrazol-1-yl)phenyl)-8-methyl-4-oxo-4,6,7,8-tetrahydropyrrolo[1,2-a]pyrimidin-6-yl)-1H-imidazol-5-yl)phenyl)carbamate] was run?
Answer: The IC50 was 723 nM.

Question: And the IC50 (Factor XIa; values in nM)?
Answer: The IC50 was 190 nM.
